Measurements reported in patent US9156801B2, “2-substituted oleanolic acid derivative, method preparing for same, and application thereof” (HANGZHOU BENSHENG PHARMACEUTICAL CO., LTD., priority 2011, dated 2015).
≈ marks a conversion by molar mass, not a printed value.

Assays:
H9 cell line = assay: leukemia cell growth inhibition, MTT; format: cell-based; conditions: Homo sapiens; for IC50: H9, 72 h; for inhibition at 16 µg/mL: H9, 16 μg/mL compound, 72 h, read-out: IR (cell proliferation inhibition rate)
Procedure, shortened: (§1)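 Proliferation inhibition was read by MTT after 72 h of compound exposure (37 °C, 5% CO2), untreated wells defining 0%. Each well held 6000 cells in 1640 medium plus 10% fetal bovine serum, with test compounds at varied concentrations.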

Jurkat cell line = assay: leukemia cell growth inhibition, MTT; format: cell-based; conditions: Homo sapiens, 72 h; for inhibition at 16 µg/mL: 16 μg/mL compound, read-out: IR (cell proliferation inhibition rate)
Procedure, shortened: as §1

K562/adr cell line = assay: leukemia cell growth inhibition, MTT; format: cell-based; conditions: Homo sapiens, 72 h; for IC50: K562/Adr; for inhibition at 16 µg/mL: K562/adr, 16 μg/mL compound, read-out: IR (cell proliferation inhibition rate)
Procedure, shortened: as §1

Kasumi-1 cell line = assay: leukemia cell growth inhibition, MTT; format: cell-based; conditions: Homo sapiens; for inhibition at 16 µg/mL: Kasumi-1, 16 μg/mL compound, 72 h, read-out: IR (cell proliferation inhibition rate); for IC50: Kasumi-1, 72 h
Procedure, shortened: as §1

NB4 cell line = assay: leukemia cell growth inhibition, MTT; format: cell-based; conditions: Homo sapiens, NB-4; for inhibition at 16 µg/mL: NB4, 16 μg/mL compound, 72 h, read-out: IR (cell proliferation inhibition rate); for IC50: NB4, 72 h
Procedure, shortened: as §1

RPMI8226 cell line = assay: multiple myeloma cell growth inhibition, MTT; format: cell-based; conditions: Homo sapiens, RPMI-8226; for inhibition at 16 µg/mL: RPMI8226, 16 μg/mL compound, 72 h, read-out: IR (cell proliferation inhibition rate); for IC50: RPMI8226, 72 h
Procedure, shortened: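 Viability was measured by MTT after a 72 h compound exposure (37° C, 5% CO2) of RPMI8226 myeloma cells seeded at 6000 per well in 1640 medium with 10% fetal bovine serum. Growth inhibition was expressed relative to untreated cells, taken as 0%.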

Hep G2 cell line = assay: solid tumor cell growth inhibition, MTT; format: cell-based, human; conditions: Homo sapiens; for inhibition at 16 µg/mL: HepG2, 72 h, Hep G2, 16 μg/mL compound, 72 h, read-out: IR (cell proliferation inhibition rate); for IC50: HepG2, Hep G2, 72 h
Procedure, shortened: (§2)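 Relative viable-cell counts come from MTT after 72 h of compound treatment; wells held 4000 cells in DMEM high glucose plus 10% FBS, incubated at 37° C, 5% CO2.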

A549 cell line = assay: solid tumor cell growth inhibition, MTT; format: cell-based; conditions: Homo sapiens; for IC50: A549, 72 h; for inhibition at 16 µg/mL: A549, 16 μg/mL compound, 72 h, read-out: IR (cell proliferation inhibition rate)
Procedure, shortened: as §2

Becap37 cell line = assay: solid tumor cell growth inhibition, MTT; format: cell-based; conditions: Homo sapiens; for inhibition at 16 µg/mL: Becap37, 16 μg/mL compound, 72 h, read-out: IR (cell proliferation inhibition rate); for IC50: Becap37, 72 h
Procedure, shortened: as §2

CNE cell line = assay: solid tumor cell growth inhibition, MTT; format: cell-based; conditions: Homo sapiens, 72 h; for inhibition at 16 µg/mL: 16 μg/mL compound, read-out: IR (cell proliferation inhibition rate)
Procedure, shortened: as §2

CaES-17 cell line = assay: solid tumor cell growth inhibition, MTT; format: cell-based; conditions: Homo sapiens, CaEs17; for inhibition at 16 µg/mL: CaES-17, 16 μg/mL compound, 72 h, read-out: IR (cell proliferation inhibition rate); for IC50: CaES-17, 72 h
Procedure, shortened: as §2

Hela cell line = assay: solid tumor cell growth inhibition, MTT; format: cell-based; conditions: Homo sapiens, 72 h; for IC50: HeLa; for inhibition at 16 µg/mL: Hela, 16 μg/mL compound, read-out: IR (cell proliferation inhibition rate)
Procedure, shortened: as §2

Hep-2 cell line = assay: solid tumor cell growth inhibition, MTT; format: cell-based; conditions: Homo sapiens; for IC50: HEp-2, 72 h; for inhibition at 16 µg/mL: Hep-2, 16 μg/mL compound, 72 h, read-out: IR (cell proliferation inhibition rate)
Procedure, shortened: as §2

MG-63 cell line = assay: solid tumor cell growth inhibition, MTT; format: cell-based; conditions: Homo sapiens; for IC50: MG-63, 72 h; for inhibition at 16 µg/mL: MG-63, 16 μg/mL compound, 72 h, read-out: IR (cell proliferation inhibition rate)
Procedure, shortened: as §2

MGC 803 cell line = assay: solid tumor cell growth inhibition, MTT; format: cell-based; conditions: Homo sapiens; for inhibition at 16 µg/mL: MGC 803, 16 μg/mL compound, 72 h, read-out: IR (cell proliferation inhibition rate); for IC50: MGC 803, 72 h
Procedure, shortened: as §2

PANC-1 cell line = assay: solid tumor cell growth inhibition, MTT; format: cell-based; conditions: Homo sapiens; for IC50: PANC-1, 72 h; for inhibition at 16 µg/mL: PANC-1, 16 μg/mL compound, 72 h, read-out: IR (cell proliferation inhibition rate)
Procedure, shortened: as §2

PC-3 cell line = assay: solid tumor cell growth inhibition, MTT; format: cell-based; conditions: Homo sapiens; for IC50: PC-3, 72 h; for inhibition at 16 µg/mL: PC-3, 16 μg/mL compound, 72 h, read-out: IR (cell proliferation inhibition rate)
Procedure, shortened: as §2

RKO cell line = assay: solid tumor cell growth inhibition, MTT; format: cell-based; conditions: Homo sapiens, 72 h; for inhibition at 16 µg/mL: 16 μg/mL compound, read-out: IR (cell proliferation inhibition rate)
Procedure, shortened: as §2

SK-OV-3 cell line = assay: solid tumor cell growth inhibition, MTT; format: cell-based; conditions: Homo sapiens; for IC50: SK-OV-3, 72 h; for inhibition at 16 µg/mL: SK-OV-3, 16 μg/mL compound, 72 h, read-out: IR (cell proliferation inhibition rate)
Procedure, shortened: as §2

U87 MG cell line = assay: solid tumor cell growth inhibition, MTT; format: cell-based; conditions: Homo sapiens, U-87 MG, 72 h; for inhibition at 16 µg/mL: 16 μg/mL compound, read-out: IR (cell proliferation inhibition rate)
Procedure, shortened: as §2

| Structure (SMILES) | IC50 (H9 cell line) [µg/mL] | inhibition at 16 µg/mL (H9 cell line) [%] | inhibition at 16 µg/mL (Jurkat cell line) [%] | IC50 (Jurkat cell line) [µg/mL] | IC50 (K562/adr cell line) [µg/mL] | inhibition at 16 µg/mL (K562/adr cell line) [%] | inhibition at 16 µg/mL (Kasumi-1 cell line) [%] | IC50 (Kasumi-1 cell line) [µg/mL] | inhibition at 16 µg/mL (NB4 cell line) [%] | IC50 (NB4 cell line) [µg/mL] | inhibition at 16 µg/mL (RPMI8226 cell line) [%] | IC50 (RPMI8226 cell line) [µg/mL] | inhibition at 16 µg/mL (Hep G2 cell line) [%] | IC50 (Hep G2 cell line) [µg/mL] | IC50 (A549 cell line) [µg/mL] | inhibition at 16 µg/mL (A549 cell line) [%] | inhibition at 16 µg/mL (Becap37 cell line) [%] | IC50 (Becap37 cell line) [µg/mL] | inhibition at 16 µg/mL (CNE cell line) [%] | IC50 (CNE cell line) [µg/mL] | further results |
| --- | --- | --- | --- | --- | --- | --- | --- | --- | --- | --- | --- | --- | --- | --- | --- | --- | --- | --- | --- | --- | --- |
| COC(=O)[C@]12CCC(C)(C)CC1C1=CCC3[C@@]4(C)CC(C(=O)NCCCN5CCCC5)C(=O)C(C)(C)C4CC[C@@]3(C)[C@]1(C)CC2 (stereo partly drawn) [BS-OA-016] | 2.96 (≈ 4.75 µM) | 95.4 | 95.1 | 2.38 (≈ 3.82 µM) | 0.52 (≈ 0.835 µM) | 97.8 | 99.1 | 3.76 (≈ 6.04 µM) | 99.8 | 2.94 (≈ 4.72 µM) | 99 | 1.15 (≈ 1.85 µM) | > 96 | 2.58 (≈ 4.14 µM) | 2.45 (≈ 3.93 µM) | 96.8 | 99.5 | 5.12 (≈ 8.22 µM) | 99.4 | 4.07 (≈ 6.53 µM) | inhibition at 16 µg/mL (CaES-17 cell line): 99.4%; IC50 (CaES-17 cell line): 3.93 µg/mL (≈ 6.31 µM); IC50 (Hela cell line): 3.78 µg/mL (≈ 6.07 µM); inhibition at 16 µg/mL (Hela cell line): 98%; IC50 (Hep-2 cell line): 5.85 µg/mL (≈ 9.39 µM); inhibition at 16 µg/mL (Hep-2 cell line): 97.2%; IC50 (MG-63 cell line): 4.35 µg/mL (≈ 6.98 µM); inhibition at 16 µg/mL (MG-63 cell line): 100%; inhibition at 16 µg/mL (MGC 803 cell line): 99.1%; IC50 (MGC 803 cell line): 3 µg/mL (≈ 4.82 µM); IC50 (PANC-1 cell line): 4.38 µg/mL (≈ 7.03 µM); inhibition at 16 µg/mL (PANC-1 cell line): 98.5%; IC50 (PC-3 cell line): 5.06 µg/mL (≈ 8.12 µM); inhibition at 16 µg/mL (PC-3 cell line): 99.8%; inhibition at 16 µg/mL (RKO cell line): 99.4%; IC50 (RKO cell line): 3.33 µg/mL (≈ 5.35 µM); IC50 (SK-OV-3 cell line): 5.04 µg/mL (≈ 8.09 µM); inhibition at 16 µg/mL (SK-OV-3 cell line): 99.5%; inhibition at 16 µg/mL (U87 MG cell line): 100%; IC50 (U87 MG cell line): 2.45 µg/mL (≈ 3.93 µM) |
| COC(=O)[C@]12CCC(C)(C)C[C@H]1C1=CC[C@@H]3[C@@]4(C)CC(C(=O)NCC5CC5)C(=O)C(C)(C)[C@@H]4CC[C@@]3(C)[C@]1(C)CC2 (stereo partly drawn) [BS-OA-048] | > 16 | 28.9 | -21.2 | > 16 | > 16 | 21.4 | 0.2 | > 16 | 11 | > 16 | 4.9 | > 16 | 7.4 | > 16 | > 16 | -3.8 | -8.4 | > 16 | 21.9 | > 16 | inhibition at 16 µg/mL (CaES-17 cell line): -18.6%; IC50 (CaES-17 cell line): > 16 µg/mL; IC50 (Hela cell line): > 16 µg/mL; inhibition at 16 µg/mL (Hela cell line): 2.4%; IC50 (Hep-2 cell line): > 16 µg/mL; inhibition at 16 µg/mL (Hep-2 cell line): -5.3%; IC50 (MG-63 cell line): > 16 µg/mL; inhibition at 16 µg/mL (MG-63 cell line): -20.3%; inhibition at 16 µg/mL (MGC 803 cell line): -5.9%; IC50 (MGC 803 cell line): > 16 µg/mL; IC50 (PANC-1 cell line): > 16 µg/mL; inhibition at 16 µg/mL (PANC-1 cell line): -17.8%; IC50 (PC-3 cell line): > 16 µg/mL; inhibition at 16 µg/mL (PC-3 cell line): 17.7%; inhibition at 16 µg/mL (RKO cell line): -33.4%; IC50 (RKO cell line): > 16 µg/mL; IC50 (SK-OV-3 cell line): > 16 µg/mL; inhibition at 16 µg/mL (SK-OV-3 cell line): 22%; inhibition at 16 µg/mL (U87 MG cell line): 5.6%; IC50 (U87 MG cell line): > 16 µg/mL |
| COC(=O)[C@]12CCC(C)(C)CC1C1=CCC3[C@@]4(C)CC(C(=O)NC5CC5)C(=O)C(C)(C)C4CC[C@@]3(C)[C@]1(C)CC2 (stereo partly drawn) [BS-OA-034] | > 16 | 22.1 | -19.6 | > 16 | > 16 | 25.3 | 22.6 | > 16 | 22.3 | > 16 | 15.5 | > 16 | 8.9 | > 16 | > 16 | 5.3 | -6.7 | > 16 | 16.7 | > 16 | inhibition at 16 µg/mL (CaES-17 cell line): -6.7%; IC50 (CaES-17 cell line): > 16 µg/mL; IC50 (Hela cell line): > 16 µg/mL; inhibition at 16 µg/mL (Hela cell line): 0.6%; IC50 (Hep-2 cell line): > 16 µg/mL; inhibition at 16 µg/mL (Hep-2 cell line): 5.4%; IC50 (MG-63 cell line): > 16 µg/mL; inhibition at 16 µg/mL (MG-63 cell line): -5.4%; inhibition at 16 µg/mL (MGC 803 cell line): -3.2%; IC50 (MGC 803 cell line): > 16 µg/mL; IC50 (PANC-1 cell line): > 16 µg/mL; inhibition at 16 µg/mL (PANC-1 cell line): -9.9%; IC50 (PC-3 cell line): > 16 µg/mL; inhibition at 16 µg/mL (PC-3 cell line): 19%; inhibition at 16 µg/mL (RKO cell line): -41%; IC50 (RKO cell line): > 16 µg/mL; IC50 (SK-OV-3 cell line): > 16 µg/mL; inhibition at 16 µg/mL (SK-OV-3 cell line): 21.3%; inhibition at 16 µg/mL (U87 MG cell line): 18.2%; IC50 (U87 MG cell line): > 16 µg/mL |
